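Dose response: 5 concentrations. Exposure: 48 h. Format: 96-well plates. Endpoint: linear interpolation; highest concentration if not reached. TGI: concentration producing complete growth inhibition.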
How the values were obtained:
Assay in all cases: DTP human tumour cell line panel, 48 h
786-0 renal = test system: 786-0 renal
A498 renal = test system: A498 renal
A549 NSCLC = test system: A549 NSCLC
ACHN renal = test system: ACHN renal
BT-549 breast = test system: BT-549 breast
CAKI-1 renal = test system: CAKI-1 renal
CCRF-CEM leukemia = test system: CCRF-CEM leukemia
COLO 205 colon = test system: COLO 205 colon
DU-145 prostate = test system: DU-145 prostate
EKVX NSCLC = test system: EKVX NSCLC
HCC-2998 colon = test system: HCC-2998 colon
HCT-116 colon = test system: HCT-116 colon
HCT-15 colon = test system: HCT-15 colon
HL-60(TB) leukemia = test system: HL-60(TB) leukemia
HOP-62 NSCLC = test system: HOP-62 NSCLC
HOP-92 NSCLC = test system: HOP-92 NSCLC
HS 578T breast = test system: HS 578T breast
HT29 colon = test system: HT29 colon
IGROV1 ovarian = test system: IGROV1 ovarian
K-562 leukemia = test system: K-562 leukemia
KM12 colon = test system: KM12 colon
LOX IMVI melanoma = test system: LOX IMVI melanoma
M14 melanoma = test system: M14 melanoma
MALME-3M melanoma = test system: MALME-3M melanoma
MCF7 breast = test system: MCF7 breast
MDA-MB-231 breast = test system: MDA-MB-231 breast
MDA-MB-435 = test system: MDA-MB-435
MDA-N = test system: MDA-N
MOLT-4 leukemia = test system: MOLT-4 leukemia
NCI-H226 lung = test system: NCI-H226 lung
NCI-H23 lung = test system: NCI-H23 lung
NCI-H460 lung = test system: NCI-H460 lung
NCI-H522 lung = test system: NCI-H522 lung
NCI/ADR-RES ovarian = test system: NCI/ADR-RES ovarian
OVCAR-3 ovarian = test system: OVCAR-3 ovarian
OVCAR-4 ovarian = test system: OVCAR-4 ovarian
OVCAR-5 ovarian = test system: OVCAR-5 ovarian
OVCAR-8 ovarian = test system: OVCAR-8 ovarian
PC-3 prostate = test system: PC-3 prostate
RPMI-8226 leukemia = test system: RPMI-8226 leukemia
SF-268 CNS = test system: SF-268 CNS
SF-295 CNS = test system: SF-295 CNS
SF-539 CNS = test system: SF-539 CNS
SK-MEL-2 melanoma = test system: SK-MEL-2 melanoma
SK-MEL-28 melanoma = test system: SK-MEL-28 melanoma
SK-MEL-5 melanoma = test system: SK-MEL-5 melanoma
SK-OV-3 ovarian = test system: SK-OV-3 ovarian
SN12C renal = test system: SN12C renal
SNB-19 CNS = test system: SNB-19 CNS
SNB-75 CNS = test system: SNB-75 CNS
SR leukemia = test system: SR leukemia
SW-620 colon = test system: SW-620 colon
T-47D breast = test system: T-47D breast
TK-10 renal = test system: TK-10 renal
U251 CNS = test system: U251 CNS
UACC-257 melanoma = test system: UACC-257 melanoma
UACC-62 melanoma = test system: UACC-62 melanoma
UO-31 renal = test system: UO-31 renal
RXF 393 renal = test system: RXF 393 renal

## C/C(=N\NC(=S)N1CCCCC1)c1nc2ncccc2[nH]1
786-0 renal
  TGI: > 100 µM
A498 renal
  TGI: 65.5 µM
A549 NSCLC
  TGI: 96.4 µM
ACHN renal
  TGI: > 100 µM
BT-549 breast
  TGI: 28.3 µM
CAKI-1 renal
  TGI: > 100 µM
CCRF-CEM leukemia
  TGI: 17.2 µM
COLO 205 colon
  TGI: > 100 µM
DU-145 prostate
  TGI: 86.3 µM
EKVX NSCLC
  TGI: 98.2 µM
HCC-2998 colon
  TGI: > 100 µM
HCT-116 colon
  TGI: 22.7 µM
HCT-15 colon
  TGI: > 100 µM
HL-60(TB) leukemia
  TGI: 19.1 µM
HOP-62 NSCLC
  TGI: > 100 µM
HOP-92 NSCLC
  TGI: 43.1 µM
HS 578T breast
  TGI: > 100 µM
HT29 colon
  TGI: > 100 µM
IGROV1 ovarian
  TGI: > 100 µM
K-562 leukemia
  TGI: 43.7 µM
KM12 colon
  TGI: > 100 µM
LOX IMVI melanoma
  TGI: > 100 µM
M14 melanoma
  TGI: 47.7 µM
MALME-3M melanoma
  TGI: > 100 µM
MCF7 breast
  TGI: 14 µM
MDA-MB-231 breast
  TGI: > 100 µM
MDA-MB-435
  TGI: 35 µM
MDA-N
  TGI: 47.9 µM
MOLT-4 leukemia
  TGI: 19.9 µM
NCI-H226 lung
  TGI: 26.7 µM
NCI-H23 lung
  TGI: 57.5 µM
NCI-H460 lung
  TGI: 49.8 µM
NCI-H522 lung
  TGI: 30.7 µM
NCI/ADR-RES ovarian
  TGI: > 100 µM
OVCAR-3 ovarian
  TGI: > 100 µM
OVCAR-4 ovarian
  TGI: > 100 µM
OVCAR-5 ovarian
  TGI: 76.4 µM
OVCAR-8 ovarian
  TGI: 34.8 µM
PC-3 prostate
  TGI: > 100 µM
RPMI-8226 leukemia
  TGI: 30.1 µM
SF-268 CNS
  TGI: > 100 µM
SF-295 CNS
  TGI: 88.7 µM
SF-539 CNS
  TGI: 21.3 µM
SK-MEL-2 melanoma
  TGI: > 100 µM
SK-MEL-28 melanoma
  TGI: 37.7 µM
SK-MEL-5 melanoma
  TGI: 12.3 µM
SK-OV-3 ovarian
  TGI: > 100 µM
SN12C renal
  TGI: > 100 µM
SNB-19 CNS
  TGI: > 100 µM
SNB-75 CNS
  TGI: > 100 µM
SR leukemia
  TGI: 28.6 µM
SW-620 colon
  TGI: > 100 µM
T-47D breast
  TGI: 42.4 µM
TK-10 renal
  TGI: 68.4 µM
U251 CNS
  TGI: > 100 µM
UACC-257 melanoma
  TGI: 31.9 µM
UACC-62 melanoma
  TGI: 69.7 µM
UO-31 renal
  TGI: > 100 µM

## NS(=O)(=O)c1ccc(N=Nc2nc3[nH]c(=O)[nH]c(=O)c3[nH]2)cc1
786-0 renal
  TGI: > 100 µM
A498 renal
  TGI: > 100 µM
A549 NSCLC
  TGI: > 100 µM
ACHN renal
  TGI: > 100 µM
BT-549 breast
  TGI: > 100 µM
CAKI-1 renal
  TGI: > 100 µM
COLO 205 colon
  TGI: > 100 µM
DU-145 prostate
  TGI: > 100 µM
EKVX NSCLC
  TGI: > 100 µM
HCC-2998 colon
  TGI: > 100 µM
HCT-116 colon
  TGI: > 100 µM
HCT-15 colon
  TGI: > 100 µM
HOP-62 NSCLC
  TGI: > 100 µM
HOP-92 NSCLC
  TGI: > 100 µM
HS 578T breast
  TGI: > 100 µM
HT29 colon
  TGI: > 100 µM
IGROV1 ovarian
  TGI: > 100 µM
K-562 leukemia
  TGI: > 100 µM
KM12 colon
  TGI: > 100 µM
LOX IMVI melanoma
  TGI: > 100 µM
M14 melanoma
  TGI: > 100 µM
MALME-3M melanoma
  TGI: > 100 µM
MCF7 breast
  TGI: > 100 µM
MDA-MB-231 breast
  TGI: > 100 µM
MDA-MB-435
  TGI: > 100 µM
MDA-N
  TGI: > 100 µM
NCI-H226 lung
  TGI: > 100 µM
NCI-H23 lung
  TGI: > 100 µM
NCI-H460 lung
  TGI: > 100 µM
NCI-H522 lung
  TGI: > 100 µM
NCI/ADR-RES ovarian
  TGI: > 100 µM
OVCAR-3 ovarian
  TGI: > 100 µM
OVCAR-4 ovarian
  TGI: > 100 µM
OVCAR-5 ovarian
  TGI: > 100 µM
OVCAR-8 ovarian
  TGI: > 100 µM
PC-3 prostate
  TGI: > 100 µM
RPMI-8226 leukemia
  TGI: > 100 µM
RXF 393 renal
  TGI: > 100 µM
SF-268 CNS
  TGI: > 100 µM
SF-295 CNS
  TGI: > 100 µM
SF-539 CNS
  TGI: > 100 µM
SK-MEL-2 melanoma
  TGI: > 100 µM
SK-MEL-28 melanoma
  TGI: > 100 µM
SK-MEL-5 melanoma
  TGI: > 100 µM
SK-OV-3 ovarian
  TGI: > 100 µM
SN12C renal
  TGI: > 100 µM
SNB-19 CNS
  TGI: > 100 µM
SNB-75 CNS
  TGI: > 100 µM
SR leukemia
  TGI: > 100 µM
SW-620 colon
  TGI: > 100 µM
T-47D breast
  TGI: > 100 µM
TK-10 renal
  TGI: > 100 µM
U251 CNS
  TGI: > 100 µM
UACC-257 melanoma
  TGI: > 100 µM
UACC-62 melanoma
  TGI: > 100 µM
UO-31 renal
  TGI: > 100 µM

## O=C(O)C1C2C=CC(O2)C1C(=O)NCc1ccccn1 (configuration not stated)
786-0 renal
  TGI: > 100 µM
A498 renal
  TGI: > 100 µM
A549 NSCLC
  TGI: > 100 µM
ACHN renal
  TGI: > 100 µM
BT-549 breast
  TGI: > 100 µM
CAKI-1 renal
  TGI: > 100 µM
CCRF-CEM leukemia
  TGI: > 100 µM
COLO 205 colon
  TGI: > 100 µM
DU-145 prostate
  TGI: > 100 µM
EKVX NSCLC
  TGI: > 100 µM
HCT-116 colon
  TGI: > 100 µM
HCT-15 colon
  TGI: > 100 µM
HL-60(TB) leukemia
  TGI: > 100 µM
HOP-62 NSCLC
  TGI: > 100 µM
HOP-92 NSCLC
  TGI: > 100 µM
HS 578T breast
  TGI: > 100 µM
HT29 colon
  TGI: > 100 µM
IGROV1 ovarian
  TGI: > 100 µM
K-562 leukemia
  TGI: > 100 µM
KM12 colon
  TGI: > 100 µM
LOX IMVI melanoma
  TGI: > 100 µM
M14 melanoma
  TGI: > 100 µM
MALME-3M melanoma
  TGI: > 100 µM
MCF7 breast
  TGI: > 100 µM
MDA-MB-231 breast
  TGI: > 100 µM
MDA-MB-435
  TGI: > 100 µM
MDA-N
  TGI: > 100 µM
MOLT-4 leukemia
  TGI: > 100 µM
NCI-H226 lung
  TGI: > 100 µM
NCI-H23 lung
  TGI: > 100 µM
NCI-H460 lung
  TGI: > 100 µM
NCI-H522 lung
  TGI: > 100 µM
NCI/ADR-RES ovarian
  TGI: > 100 µM
OVCAR-3 ovarian
  TGI: > 100 µM
OVCAR-4 ovarian
  TGI: > 100 µM
OVCAR-5 ovarian
  TGI: > 100 µM
OVCAR-8 ovarian
  TGI: > 100 µM
PC-3 prostate
  TGI: > 100 µM
RPMI-8226 leukemia
  TGI: > 100 µM
RXF 393 renal
  TGI: > 100 µM
SF-268 CNS
  TGI: > 100 µM
SF-295 CNS
  TGI: > 100 µM
SF-539 CNS
  TGI: > 100 µM
SK-MEL-2 melanoma
  TGI: > 100 µM
SK-MEL-28 melanoma
  TGI: > 100 µM
SK-MEL-5 melanoma
  TGI: > 100 µM
SK-OV-3 ovarian
  TGI: > 100 µM
SN12C renal
  TGI: > 100 µM
SNB-19 CNS
  TGI: > 100 µM
SNB-75 CNS
  TGI: > 100 µM
SR leukemia
  TGI: > 100 µM
SW-620 colon
  TGI: > 100 µM
T-47D breast
  TGI: > 100 µM
TK-10 renal
  TGI: > 100 µM
U251 CNS
  TGI: > 100 µM
UACC-257 melanoma
  TGI: > 100 µM
UACC-62 melanoma
  TGI: > 100 µM
UO-31 renal
  TGI: > 100 µM
